Results taken from patent publication US12257237B2 (priority 2017, dated 2025).
Several values for one entry are separate records, joined by “and”; a condition that tells them apart may be missing. Equal entries are not always repeated.

How the values were obtained:
[1] = Drug tolerability (body weight) in DD013 dedifferentiated liposarcoma xenograft model; type: in vivo, Athymic nude mice; settings: for BWL % / Mouse body weight, Mean: Doxo (8 mg/kg)
Description: (§1) Experiments were performed with female Athymic nude mice, 9-10 weeks old obtained from Harlan Laboratories (Udine, Italy). They were maintained under Specific Pathogen Free conditions with constant temperature and humidity, according to the institutional guidelines.
(§2) Tumour growth mice was monitored two/three times a week (depending on tumour growth rate, to avoid unnecessary stress to the animals) by Vernier caliper. Mice were sacrificed when tumour reached a mean weight of 2±0.5 gr. The antitumour activity will be expressed as T/C %, where T and C were the mean tumour weight of treated and control groups, respectively. Mice were monitored daily and weighted at least two times a week. Tolerability was evaluated on the basis of body weight loss (BWL) and clinical observation.

[2] = tested on: DD013 dedifferentiated liposarcoma; experiment: Antitumour activity in DD013 dedifferentiated liposarcoma xenograft model; type: in vivo, Athymic nude mice; settings: for DD0113 tumour weight, Mean / DD0113 tumour weight, individual mouse: Doxorubicin 8 mg/kg q7dx2
Description: as §1, §2
Statistical analysis was performed with GraphPad Prism version 6.01 software (GraphPad software, Inc., La Jolla, CA, USA). ANOVA test was performed to evaluate if there were statistically significant differences between treated and control groups.
Briefly, xenografts were obtained by transplanting 3-4 mm tumour fragments s.c. in the flanks of mice. The growing tumour masses were measured with the aid of a Vernier caliper, and the tumour weights (TW, 1 mm^3=1 mg) were calculated by the formula: length×(width) 2/2. When tumour load achieved about 200-400 mg, mice were randomized into the experimental groups.

COc1cccc2c1C(=O)c1c(O)c3c(c(O)c1C2=O)C[C@@](O)(C(=O)CO)C[C@@H]3O[C@H]1C[C@H](N)[C@H](O)[C@H](C)O1 [Doxo]
BWL % ([1]; day 23 from inoculum): 0.0% | Mouse body weight, Mean ([1]; day 23 from inoculum): 23.7 g | BWL % ([1]; day 26 from inoculum): −2.6% | Mouse body weight, Mean ([1]; day 26 from inoculum): 23.0 g | BWL % ([1]; day 29 from inoculum): −0.3% | Mouse body weight, Mean ([1]; day 29 from inoculum): 23.6 g | BWL % ([1]; day 33 from inoculum): −5.2% | Mouse body weight, Mean ([1]; day 33 from inoculum): 22.4 g | BWL % ([1]; day 36 from inoculum): −1.7% | Mouse body weight, Mean ([1]; day 36 from inoculum): 23.3 g | BWL % ([1]; day 40 from inoculum): 0.7% | Mouse body weight, Mean ([1]; day 40 from inoculum): 23.8 g | BWL % ([1]; day 43 from inoculum): 4.0% | Mouse body weight, Mean ([1]; day 43 from inoculum): 24.6 g | BWL % ([1]; day 47 from inoculum): 8.4% | Mouse body weight, Mean ([1]; day 47 from inoculum): 25.7 g | BWL % ([1]; day 50 from inoculum): 5.1% | Mouse body weight, Mean ([1]; day 50 from inoculum): 24.9 g | BWL % ([1]; day 54 from inoculum): 5.5% | Mouse body weight, Mean ([1]; day 54 from inoculum): 25.0 g | BWL % ([1]; day 58 from inoculum): 5.8% | Mouse body weight, Mean ([1]; day 58 from inoculum): 25.0 g | BWL % ([1]; day 62 from inoculum): 8.9% | Mouse body weight, Mean ([1]; day 62 from inoculum): 25.8 g | BWL % ([1]; day 65 from inoculum): 7.4% | Mouse body weight, Mean ([1]; day 65 from inoculum): 25.4 g | Mouse body weight, Mean ([1]; day 69 from inoculum): 26.6 g | BWL % ([1]; day 72 from inoculum): 10.0% | Mouse body weight, Mean ([1]; day 72 from inoculum): 26.0 g | BWL % ([1]; day 75 from inoculum): 10.3% | Mouse body weight, Mean ([1]; day 75 from inoculum): 26.1 g

COc1cccc2c1C(=O)c1c(O)c3c(c(O)c1C2=O)C[C@@](O)(C(=O)CO)C[C@@H]3O[C@H]1C[C@H](N)[C@H](O)[C@H](C)O1 [Doxorubicin, reference compound]
optimal T/C ([2]; 8 mg/kg i.v. q7dx2): 34.1% | effect on tumour growth ([2]; 8 mg/kg q7dx2): No arrest of tumour growth was observed | DD0113 tumour weight, Mean ([2]; day 23 from inoculum): 199.3 mg | DD0113 tumour weight, individual mouse ([2]; day 23 from inoculum): 302.2 mg and 277.0 mg and 253.6 mg and 228.6 mg and 196.0 mg and 178.0 mg and 147.0 mg and 114.2 mg and 97.6 mg | DD0113 tumour weight, Mean ([2]; day 26 from inoculum): 295.8 mg | DD0113 tumour weight, individual mouse ([2]; day 26 from inoculum): 464.9 mg and 410.3 mg and 365.9 mg and 384.0 mg and 308.8 mg and 283.4 mg and 232.9 mg and 87.4 mg | DD0113 tumour weight, Mean ([2]; day 29 from inoculum): 336.6 mg | DD0113 tumour weight, individual mouse ([2]; day 29 from inoculum): 492.1 mg and 380.4 mg and 478.9 mg and 477.1 mg and 398.0 mg and 313.2 mg and 252.9 mg and 147.9 mg and 89.3 mg | DD0113 tumour weight, Mean ([2]; day 33 from inoculum): 409.1 mg | DD0113 tumour weight, individual mouse ([2]; day 33 from inoculum): 566.5 mg and 526.0 mg and 691.7 mg and 549.0 mg and 444.0 mg and 344.6 mg and 295.0 mg and 150.3 mg | DD0113 tumour weight, Mean ([2]; day 36 from inoculum): 425.8 mg | DD0113 tumour weight, individual mouse ([2]; day 36 from inoculum): 549.6 mg and 572.5 mg and 610.4 mg and 519.4 mg and 503.4 mg and 361.9 mg and 345.6 mg and 240.6 mg | DD0113 tumour weight, Mean ([2]; day 40 from inoculum): 499.7 mg | DD0113 tumour weight, individual mouse ([2]; day 40 from inoculum): 578.4 mg and 652.6 mg and 762.1 mg and 750.9 mg and 531.1 mg and 424.1 mg and 401.6 mg and 244.9 mg and 151.8 mg | DD0113 tumour weight, Mean ([2]; day 43 from inoculum): 543.1 mg | DD0113 tumour weight, individual mouse ([2]; day 43 from inoculum): 529.7 mg and 810.5 mg and 868.0 mg and 780.2 mg and 575.9 mg and 420.0 mg and 428.4 mg and 263.0 mg and 212.3 mg | DD0113 tumour weight, Mean ([2]; day 47 from inoculum): 666.3 mg | DD0113 tumour weight, individual mouse ([2]; day 47 from inoculum): 623.2 mg and 800.6 mg and 669.1 mg and 636.6 mg and 529.5 mg and 430.2 mg and 224.5 mg | DD0113 tumour weight, Mean ([2]; day 50 from inoculum): 716.0 mg | DD0113 tumour weight, individual mouse ([2]; day 50 from inoculum): 561.6 mg and 1194.0 mg and 680.6 mg | DD0113 tumour weight, Mean ([2]; day 54 from inoculum): 810.3 mg | DD0113 tumour weight, individual mouse ([2]; day 54 from inoculum): 776.7 mg and 1306.3 mg and 1175.7 mg and 807.3 mg | DD0113 tumour weight, Mean ([2]; day 58 from inoculum): 958.1 mg | DD0113 tumour weight, individual mouse ([2]; day 58 from inoculum): 819.5 mg and 1324.9 mg and 1508.4 mg and 1392.3 mg | DD0113 tumour weight, Mean ([2]; day 62 from inoculum): 1128.5 mg | DD0113 tumour weight, individual mouse ([2]; day 62 from inoculum): 955.7 mg and 1686.9 mg and 1777.9 mg and 1604.2 mg | DD0113 tumour weight, Mean ([2]; day 65 from inoculum): 1312.4 mg | DD0113 tumour weight, individual mouse ([2]; day 65 from inoculum): 960.1 mg and 1836.1 mg and 2144.7 mg and 1949.8 mg and 1415.2 mg | DD0113 tumour weight, Mean ([2]; day 69 from inoculum): 1491.3 mg | DD0113 tumour weight, individual mouse ([2]; day 69 from inoculum): 1238.0 mg and 2045.0 mg and 2383.0 mg and 2019.6 mg and 1526.2 mg | DD0113 tumour weight, Mean ([2]; day 72 from inoculum): 1712.4 mg | DD0113 tumour weight, individual mouse ([2]; day 72 from inoculum): 1440.5 mg and 2810.6 mg and 2245.9 mg and 1770.1 mg | DD0113 tumour weight, Mean ([2]; day 75 from inoculum): 1970.8 mg | DD0113 tumour weight, individual mouse ([2]; day 75 from inoculum): 1747.2 mg and 3155.1 mg and 2700.8 mg and 2034.9 mg | maximum BWL ([1]; 8 mg/kg, day 33): 5.2%
